According to patent US10457677B2 (priority 2015, dated 2019):

Assays:
[1] = biological target: purified human recombinant ATM (ataxia telangiectasia mutated), full length (Homo sapiens (Human), UniProt Q13315); assay: ATM kinase assay - determination of ATM inhibition (IC50 ATM), TR-FRET; type: biochemical; details: 10 μM ATP, substrate p53
How it was run: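 Full-length enzyme, expressed in a mammalian cell line, pre-incubated 15 min with inhibitor in 25 mM HEPES pH 8.0, 10 mM Mg(CH3COO)2, 1 mM MnCl2, 0,1% BSA, 0,01% Brij 35, 5 mM DTT. Full-length cmyc-p53 (Sf21-expressed) and ATP then added, 30-35 min at 22° C. EDTA stop; p53 S15 phosphorylation read by TR-FRET antibodies.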

[2] = test system: phosphorylation of CHK2 (phospho-Thr68) in HCT116 cells; assay: Cellular pCHK2 assay: bleomycin-induced phosphorylation of CHK2 (phospho-Thr68), immunofluorescence high-content analysis; type: cell-based, human; details: Homo sapiens, HCT-116, 4 h, read-out: IC50 (pCHK2)
From the text: For the identification of substances which inhibit the phosphorylation of the protein kinase CHK2 at the amino acid threonine 68, an immunofluorescence-based “high content” analysis assay was used in HCT116 cells.
In vitro cell-based immunofluorescence assay for the identification of inhibitors of bleomycin-induced phosphorylation of CHK2 (phospho-Thr68) in the human colon carcinoma cell line HCT116:
HCT116 cells are sown out in a defined cell density in 384-well plates in culture medium (DMEM high glucose, 2 mM GlutaMax, 1 mM Na pyruvate, 10% FCS) and incubated overnight at 37° C. and 10% of CO2. On the following day, the test substances are added in a defined concentration range (1 nM to 30 μM) in combination with 10 μM bleomycin, where the concentration of the solvent DMSO is kept constant at 0.5%. […] Parallel staining of DNA with propidium iodide enables determination of the cell count. The pCHK2 signal is detected using a high-content imager (Molecular Devices IMX Ultra) and automatic image analysis using the MetaXpress software belonging to the instrument. The number of cell nuclei which have a pCHK2 signal above a defined background is determined.

PI3K p110δ/p85α (human) = PI3K p110δ/p85α (human) (Homo sapiens (Human), UniProt O00329); assay: PI3K p110δ/p85α (human), non-radioactive assay (HTRF); type: biochemical; details: as printed:
Description: PI3K p110δ/p85α (Human), Non-radioactive Assay
(§1) PI3K p110δ/p85α (human) was incubated in an assay buffer comprising 10 μM phosphati-dylinositol 4,5-bisphosphate and MgATP (concentration as necessary). The reaction was initiated by addition of MgATP solution. After an incubation time of 30 min at room temperature, the reaction was stopped by addition of a solution consisting of EDTA and biotinylated phosphatidylinositol 3,4,5-trisphosphate. Finally, the detection buffer, consisting of a europium-labelled anti-GST monoclonal antibody, a GST-labelled GRP1 PH domain and streptavidin allophycocyanin, was added. The plate was read out via homogeneous time-resolved fluorescence (HTRF) and the corresponding signals were evaluated via the formula HTRF=10000×(Em665nm/Em620nm).

PI3K p110α/p85α (human) = PI3K p110α/p85α (human) (Homo sapiens (Human), UniProt P42336); assay: PI3K p110α/p85α (human), non-radioactive assay (HTRF); type: biochemical; details: as printed:
Description: PI3K p110α/p85α (Human), Non-radioactive Assay
as §1, with “p110α/p85α” for “p110δ/p85α”, “After” for “After an”, “incubation” for “incubation time of 30 min”, “temperature for 40 minutes,” for “temperature,”

PI3K (p120γ) (human) = PI3K (p120γ) (human) (Homo sapiens (Human), UniProt P48736); assay: PI3K (p120γ) (human), non-radioactive assay (HTRF); type: biochemical; details: as printed:
Description: PI3K (p120γ) (Human), Non-radioactive Assay
as §1, with “(p120γ)” for “p110δ/p85α”, “HTRF=10000×(Em665nm/Em620nm). • MgATP=magnesium 5′-O—[hydroxy({[(hydroxyphosphinato)oxy]phosphinato}oxy)phosphoryl]adenosine • MgCl2=magnesium dichloride • EGTA=ethylene glycol bis(aminoethyl ether) N,N,N′,N′-tetraacetic acid • Tween 20=polysorbate 20 Medicament/pharmaceutical Composition” for “HTRF=10000×(Em665nm/Em620nm).”

PI3K (p120γ) (human), sequence (P48736 whole entry): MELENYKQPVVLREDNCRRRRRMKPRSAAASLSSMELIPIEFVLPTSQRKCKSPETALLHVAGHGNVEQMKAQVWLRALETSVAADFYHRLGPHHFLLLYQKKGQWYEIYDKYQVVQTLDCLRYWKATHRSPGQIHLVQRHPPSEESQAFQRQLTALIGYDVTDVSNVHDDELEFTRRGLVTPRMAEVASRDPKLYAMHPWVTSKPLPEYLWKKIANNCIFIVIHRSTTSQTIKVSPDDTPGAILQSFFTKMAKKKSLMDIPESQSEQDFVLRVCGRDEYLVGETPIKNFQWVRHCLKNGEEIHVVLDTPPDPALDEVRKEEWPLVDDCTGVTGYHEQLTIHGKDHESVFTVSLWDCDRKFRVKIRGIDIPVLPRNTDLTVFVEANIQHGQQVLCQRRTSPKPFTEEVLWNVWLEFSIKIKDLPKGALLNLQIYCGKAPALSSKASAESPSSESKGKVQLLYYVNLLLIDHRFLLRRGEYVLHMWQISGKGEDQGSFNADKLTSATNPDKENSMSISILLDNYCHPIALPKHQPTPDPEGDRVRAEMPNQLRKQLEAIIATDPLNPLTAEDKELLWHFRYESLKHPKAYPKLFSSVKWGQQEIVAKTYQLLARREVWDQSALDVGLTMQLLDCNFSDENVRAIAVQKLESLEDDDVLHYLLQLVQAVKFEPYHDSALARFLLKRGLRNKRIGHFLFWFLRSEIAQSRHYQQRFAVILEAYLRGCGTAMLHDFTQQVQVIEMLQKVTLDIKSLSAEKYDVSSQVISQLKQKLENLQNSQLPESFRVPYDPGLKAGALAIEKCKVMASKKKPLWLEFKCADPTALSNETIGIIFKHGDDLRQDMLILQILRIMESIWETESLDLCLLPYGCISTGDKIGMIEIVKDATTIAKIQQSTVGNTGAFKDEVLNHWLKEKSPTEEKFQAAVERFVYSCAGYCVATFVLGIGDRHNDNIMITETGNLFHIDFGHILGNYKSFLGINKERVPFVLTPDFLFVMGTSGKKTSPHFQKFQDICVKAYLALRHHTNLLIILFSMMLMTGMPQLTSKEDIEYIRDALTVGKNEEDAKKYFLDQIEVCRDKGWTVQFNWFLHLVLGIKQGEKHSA
PI3K p110α/p85α (human), sequence (P42336 whole entry): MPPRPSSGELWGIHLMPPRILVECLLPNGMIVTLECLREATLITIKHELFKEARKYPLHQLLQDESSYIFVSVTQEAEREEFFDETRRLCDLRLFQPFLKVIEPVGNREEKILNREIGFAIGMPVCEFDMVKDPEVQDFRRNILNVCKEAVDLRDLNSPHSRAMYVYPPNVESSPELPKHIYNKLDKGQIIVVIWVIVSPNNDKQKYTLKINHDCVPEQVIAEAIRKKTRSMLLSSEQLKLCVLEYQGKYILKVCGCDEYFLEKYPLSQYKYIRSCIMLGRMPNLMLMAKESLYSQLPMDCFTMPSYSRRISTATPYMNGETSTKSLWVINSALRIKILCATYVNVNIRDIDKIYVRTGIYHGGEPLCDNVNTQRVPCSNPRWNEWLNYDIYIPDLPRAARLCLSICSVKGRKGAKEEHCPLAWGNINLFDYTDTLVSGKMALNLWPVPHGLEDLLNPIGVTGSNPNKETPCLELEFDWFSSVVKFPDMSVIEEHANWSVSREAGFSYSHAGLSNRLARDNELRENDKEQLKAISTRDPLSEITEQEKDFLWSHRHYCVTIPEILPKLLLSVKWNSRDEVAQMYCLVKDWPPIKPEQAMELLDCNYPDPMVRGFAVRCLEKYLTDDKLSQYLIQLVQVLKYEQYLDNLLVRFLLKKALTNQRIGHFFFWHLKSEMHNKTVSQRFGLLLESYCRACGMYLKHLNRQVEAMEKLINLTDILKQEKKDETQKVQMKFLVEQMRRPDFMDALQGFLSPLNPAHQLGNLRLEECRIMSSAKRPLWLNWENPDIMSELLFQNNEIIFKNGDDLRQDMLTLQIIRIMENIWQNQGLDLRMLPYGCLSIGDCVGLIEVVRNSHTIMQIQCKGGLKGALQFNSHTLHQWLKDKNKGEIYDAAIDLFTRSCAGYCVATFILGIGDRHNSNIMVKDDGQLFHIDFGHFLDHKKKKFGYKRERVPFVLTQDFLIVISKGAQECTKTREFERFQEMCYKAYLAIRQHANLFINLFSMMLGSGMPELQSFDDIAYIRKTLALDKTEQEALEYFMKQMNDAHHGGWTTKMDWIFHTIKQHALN
PI3K p110α/p85α (human), sequence (P27986 whole entry partner): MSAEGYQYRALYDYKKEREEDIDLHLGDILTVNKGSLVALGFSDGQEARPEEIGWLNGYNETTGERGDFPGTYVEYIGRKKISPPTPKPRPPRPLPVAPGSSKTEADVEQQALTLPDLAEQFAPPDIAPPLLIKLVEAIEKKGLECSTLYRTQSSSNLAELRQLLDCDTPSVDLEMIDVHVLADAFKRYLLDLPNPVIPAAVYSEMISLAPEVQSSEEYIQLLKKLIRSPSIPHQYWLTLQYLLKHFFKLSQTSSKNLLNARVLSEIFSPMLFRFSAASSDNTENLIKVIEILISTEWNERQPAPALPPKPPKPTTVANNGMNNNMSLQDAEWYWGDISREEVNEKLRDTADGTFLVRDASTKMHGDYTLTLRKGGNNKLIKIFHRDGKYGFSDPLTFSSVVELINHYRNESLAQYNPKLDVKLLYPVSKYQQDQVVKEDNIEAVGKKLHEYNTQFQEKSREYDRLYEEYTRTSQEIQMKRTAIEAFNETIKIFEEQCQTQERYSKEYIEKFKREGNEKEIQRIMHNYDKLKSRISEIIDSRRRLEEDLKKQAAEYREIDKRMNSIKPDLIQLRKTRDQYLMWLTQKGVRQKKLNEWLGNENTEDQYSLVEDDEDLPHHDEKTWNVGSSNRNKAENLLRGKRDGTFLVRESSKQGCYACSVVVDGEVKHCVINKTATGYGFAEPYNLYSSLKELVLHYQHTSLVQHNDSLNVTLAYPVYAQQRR
PI3K p110δ/p85α (human), sequence (O00329 whole entry): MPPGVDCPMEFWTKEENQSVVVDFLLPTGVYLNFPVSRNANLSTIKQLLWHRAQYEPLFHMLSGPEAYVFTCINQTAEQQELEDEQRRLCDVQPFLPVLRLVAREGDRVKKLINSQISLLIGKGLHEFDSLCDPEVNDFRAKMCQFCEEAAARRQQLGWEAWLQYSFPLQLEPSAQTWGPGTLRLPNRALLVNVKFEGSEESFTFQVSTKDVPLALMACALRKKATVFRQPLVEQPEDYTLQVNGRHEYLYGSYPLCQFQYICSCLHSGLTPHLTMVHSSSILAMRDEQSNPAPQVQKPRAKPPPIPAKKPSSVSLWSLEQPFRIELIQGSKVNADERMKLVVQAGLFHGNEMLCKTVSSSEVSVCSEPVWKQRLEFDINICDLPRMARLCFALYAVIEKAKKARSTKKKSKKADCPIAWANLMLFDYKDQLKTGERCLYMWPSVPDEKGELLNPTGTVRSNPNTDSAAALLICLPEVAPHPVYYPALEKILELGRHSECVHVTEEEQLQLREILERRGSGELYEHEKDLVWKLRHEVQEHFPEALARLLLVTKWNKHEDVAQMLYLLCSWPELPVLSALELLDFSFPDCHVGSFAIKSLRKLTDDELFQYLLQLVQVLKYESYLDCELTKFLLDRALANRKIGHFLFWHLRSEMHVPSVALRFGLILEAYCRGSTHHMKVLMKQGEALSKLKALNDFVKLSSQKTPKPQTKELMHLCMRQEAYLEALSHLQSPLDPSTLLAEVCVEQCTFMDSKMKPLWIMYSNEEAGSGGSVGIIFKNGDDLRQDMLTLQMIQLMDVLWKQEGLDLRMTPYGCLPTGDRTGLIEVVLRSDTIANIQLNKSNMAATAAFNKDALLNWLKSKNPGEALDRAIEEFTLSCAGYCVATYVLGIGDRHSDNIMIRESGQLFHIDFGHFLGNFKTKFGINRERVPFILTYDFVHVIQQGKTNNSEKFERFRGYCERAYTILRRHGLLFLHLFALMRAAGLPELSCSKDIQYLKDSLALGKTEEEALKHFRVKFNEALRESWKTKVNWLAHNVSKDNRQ
PI3K p110δ/p85α (human), sequence (P27986 whole entry partner): as the sequence (P27986 whole entry partner) above

SMILES | IC50 [1] [nM] | IC50 [2] [nM] | ratio IC50 (ATM) vs PI3Kdelta, selectivity with respect to PI3Kdelta (PI3K p110δ/p85α (human)) | ratio IC50 (ATM) vs PI3Kalpha, selectivity with respect to PI3Kalpha (PI3K p110α/p85α (human)) | ratio IC50 (ATM) vs PI3Kgamma, selectivity with respect to PI3Kgamma (PI3K (p120γ) (human))
COc1cnc(-n2c(=O)n(C)c3cnc4cc(OC)c(-c5c[nH]nc5C)cc4c32)c(F)c1 [compound 122, 1-(3-Fluoro-5-methoxy-pyridin-2-yl)-7-methoxy-3-methyl-8-(3-methyl-1H-pyrazol-4-yl)-1,3-dihydro-imidazo[4,5-c] quinolin-2-one] | < 1 | < 200 | at least 2000 times | at least 2000 times | at least 2000 times
COCCOc1cnc(-n2c(=O)n(C)c3cnc4cc(OC)c(-c5cnn(C)c5)cc4c32)c(F)c1 [compound 66, 1-[3-Fluoro-5-(2-methoxy-ethoxy)-2-pyridyl]-7-methoxy-3-methyl-8-(1-methylpyrazol-4-yl)imidazo-[4,5-c]quinolin-2-one] | < 1 | < 200 | at least 2000 times | at least 2000 times | at least 2000 times
COc1cc2ncc3c(c2cc1-c1cnn(C)c1)n(-c1cc2[nH]ccc2cn1)c(=O)n3C [compound 120, 7-Methoxy-3-methyl-8-(1-methyl-1H-pyrazol-4-yl)-1-(1H-pyrrolo[3,2-c]pyridin-6-yl)-1,3-dihydroimidazo-[4,5-c]quinolin-2-one] | < 1 | 200 to 1000 | at least 2000 times | at least 2000 times | at least 2000 times
COc1cc2ncc3c(c2cc1-c1c[nH]nc1C)n(-c1ncc(F)cc1F)c(=O)n3C [compound 117, 1-(3,5-Difluoropyridin-2-yl)-7-methoxy-3-methyl-8-(3-methyl-1H-pyrazol-4-yl)-1,3-dihydroimidazo[4,5-c]-quinolin-2-one] | < 10 | 200 to 1000 | at least 2000 times | at least 2000 times | at least 2000 times
COc1cc2ncc3c(c2cc1-c1cnn(C)c1)n(-c1ncc(OC2CNC2)cc1F)c(=O)n3C [compound 205, 1-[5-(Azetidin-3-yloxy)-3-fluoropyridin-2-yl]-7-methoxy-3-methyl-8-(1-methyl-1H-pyrazol-4-yl)-1,3-dihydroimidazo[4,5-c]-quinolin-2-one] | < 1 | 200 to 1000 | at least 2000 times | at least 2000 times | at least 2000 times
COc1cc2ncc3c(c2cc1-c1cnn(C)c1)n(-c1ncc(OC(F)F)cc1F)c(=O)n3C [compound 114, 1-(5-Difluoromethoxy-3-fluoropyridin-2-yl)-7-methoxy-3-methyl-8-(1-methyl-1H-pyrazol-4-yl)-1,3-dihydroimidazo[4,5-c]-quinolin-2-one] | < 1 | < 200 | at least 2000 times | at least 2000 times | at least 2000 times
COc1cc2ncc3c(c2cc1-c1cnn(C)c1)n(-c1ncc(OCCO)cc1F)c(=O)n3C [compound 67, 1-[3-Fluoro-5-(2-hydroxy-ethoxy)-2-pyridyl]-7-methoxy-3-methyl-8-(1-methylpyrazol-4-yl)imidazo-[4,5-c]quinolin-2-one] | < 1000 | < 200 | at least 2000 times | at least 2000 times | at least 2000 times
